Where a SMILES comes first, the peptide text is derived from it. [ ]: non-standard residue; d: D form. The star is where a group is joined. ξ: configuration not given here. DTPA = O=C(O)CN(CCN(CC(=O)O)CC(=O)O)CCN(CC(=O)O)CC(=O)*; ξGly(4-Pip(1-amidino)) = N=C(N)N1CCC(C(N)C(=O)O)CC1; ξPhe(4-guanidino) = N=C(N)Nc1ccc(CC(N)C(=O)O)cc1; ξGly(piperidin-4-yl) = NC(C(=O)O)C1CCNCC1; Dmt = Cc1cc(O)cc(C)c1C[C@H](N)C(=O)O; Pro(4-oxo) = O=C1CN[C@H](C(=O)O)C1; tBuAla = CC(C)(C)C[C@H](N)C(=O)O; Cha = N[C@@H](CC1CCCCC1)C(=O)O; Tle = CC(C)(C)[C@H](N)C(=O)O; Pip = O=C(O)[C@@H]1CCCCN1; Ac6c = NC1(C(=O)O)CCCCC1; Aze = O=C(O)[C@@H]1CCN1
Tests used:
neurotensin receptors = neurotensin receptors (Homo sapiens, UniProt P30989); assay: Competitive binding assay on frozen tissue sections of receptor-positive human tumors vs radioiodinated native neurotensin
Chain of neurotensin receptors (P30989 whole entry): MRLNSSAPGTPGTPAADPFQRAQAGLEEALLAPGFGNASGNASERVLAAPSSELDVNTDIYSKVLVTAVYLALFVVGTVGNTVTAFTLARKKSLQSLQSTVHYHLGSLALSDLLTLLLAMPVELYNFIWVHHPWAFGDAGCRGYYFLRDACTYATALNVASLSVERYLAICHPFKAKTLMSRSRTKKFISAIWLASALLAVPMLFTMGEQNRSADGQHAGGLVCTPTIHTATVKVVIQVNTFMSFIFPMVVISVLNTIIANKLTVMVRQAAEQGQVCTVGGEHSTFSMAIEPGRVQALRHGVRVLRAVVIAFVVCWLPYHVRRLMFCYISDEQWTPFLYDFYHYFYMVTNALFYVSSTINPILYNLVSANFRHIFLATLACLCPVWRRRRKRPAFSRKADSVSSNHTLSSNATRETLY
From the text: Frozen tissue sections from receptor-positive human tumors were used in a competitive binding assay.

[1] = In vitro serum stability assay (HPLC) of In-111 labeled peptide; type: in vitro ADME, human; details: human serum, 37EC, 4 hours
Procedure: (§1) All reagents were purchased from Sigma unless otherwise noted. The peptide and ^111InCl3 in 0.05 N HCl were incubated in a sodium acetate/ascorbic acid buffer for 30 minutes at room temperature. The reaction was diluted with 5% ethanol/95% PBS before using in subsequent in vitro assays.
(§2) Human serum was purchased from Sigma (H 1388). The labeled peptide was incubated in either human serum or rat urine at 37EC for the specified amount of time. An aliquot was filtered through a 0.45 μm syringe filter prior to HPLC injection.

[2] = In vitro urine stability assay (HPLC) of In-111 labeled peptide; type: in vitro ADME; details: rat urine, 37EC, 4 hours
Procedure: as §1, §2

| Structure (SMILES) | Kd (neurotensin receptors; Table 3) | % of peptide at 4 hours after incubation at 37EC, Serum [1] | % of peptide at 4 hours after incubation at 37EC, Urine [2] | Kd (neurotensin receptors; Table 1) | % of compound present at 4 hours in serum [1] | % of compound present at 4 hours in urine [2] | IC50 (neurotensin receptors; C-terminus modified derivatives) |
| --- | --- | --- | --- | --- | --- | --- | --- |
| CC(C)C[C@H](NC(=O)[C@@H](NC(=O)[C@H](Cc1ccc(O)cc1)NC(=O)[C@@H]1CCCN1C(=O)[C@H](CCCNC(=N)N)NC(=O)C(NC(=O)[C@@H]1CCCN1C(=O)[C@H](CCCCN)NC(=O)[C@H](CC(N)=O)NC(=O)[C@H](CCC(=O)O)NC(=O)[C@@H](Cc1ccc(O)cc1)NC(=O)CN(CCN(CCN(CC(=O)O)CC(=O)O)CC(=O)O)CC(=O)O)C1CCN(C(=N)N)CC1)C(C)(C)C)C(=O)O (stereo partly drawn) [Compound XIII, DTPA-DTyr-Glu-Asn-Lys-Pro-Gly(PipAm)-Arg-Pro-Tyr-tBuGly-Leu-OH] ({DTPA}-[dY]ENKP[ξGly(4-Pip(1-amidino))]RPY[Tle]L-OH) | 4.5 nM | 94.9% | 86.8% |  |  |  |  |
| CC(C)(C)C[C@H](NC(=O)[C@@H](NC(=O)[C@H](Cc1ccc(O)cc1)NC(=O)[C@@H]1CCCN1C(=O)[C@H](CCCNC(=N)N)NC(=O)C(NC(=O)[C@@H]1CCCN1C(=O)[C@@H](CCCCN)NC(=O)CN(CCN(CCN(CC(=O)O)CC(=O)O)CC(=O)O)CC(=O)O)C1CCN(C(=N)N)CC1)C(C)(C)C)C(=O)O (stereo partly drawn) [DTPA-DLys-Pro-Gly(PipAm)-Arg-Pro-Tyr-tBuGly-tBuAla-OH] ({DTPA}-[dK]P[ξGly(4-Pip(1-amidino))]RPY[Tle][tBuAla]-OH) | 7.3 nM | 89.2% | 72.3% |  |  |  |  |
| CC(C)C[C@H](NC(=O)[C@@H](NC(=O)[C@H](Cc1ccc(O)cc1)NC(=O)[C@@H]1CCCCN1C(=O)[C@H](CCCNC(=N)N)NC(=O)C(NC(=O)[C@@H]1CCCN1C(=O)[C@@H](CCCCN)NC(=O)CN(CCN(CCN(CC(=O)O)CC(=O)O)CC(=O)O)CC(=O)O)C1CCN(C(=N)N)CC1)C(C)(C)C)C(=O)O (stereo partly drawn) [DTPA-DLys-Pro-Gly(PipAm)-Arg-PipCA-Tyr-tBuGly-Leu-OH] ({DTPA}-[dK]P[ξGly(4-Pip(1-amidino))]R[Pip]Y[Tle]L-OH) | > 1000 nM | 69.5% | 45.8% |  |  |  |  |
| CC[C@H](C)[C@H](NC(=O)[C@H](Cc1ccc(O)cc1)NC(=O)[C@@H]1CCCN1C(=O)[C@H](CCCNC(=N)N)NC(=O)C(CCc1ccnc(N)n1)NC(=O)[C@@H]1CCCN1C(=O)[C@@H](CCCCN)NC(=O)CN(CCN(CCN(CC(=O)O)CC(=O)O)CC(=O)O)CC(=O)O)C(=O)N[C@@H](CC(C)C)C(=O)O (single isomer, unassigned) [Compound III, DTPA-DLys-Pro-Aba(Apy)-Arg-Pro-Tyr-Ile-Leu-OH] |  | 4.3% | 6.0% | 68 nM | 4.3% | 6.0% |  |
| CC[C@H](C)[C@H](NC(=O)[C@H](Cc1ccc(O)cc1)NC(=O)[C@@H]1CCCN1C(=O)C(Cc1ccc(NC(=N)N)cc1)NC(=O)[C@H](CCCNC(=N)N)NC(=O)[C@@H]1CCCN1C(=O)[C@@H](CCCCN)NC(=O)CN(CCN(CCN(CC(=O)O)CC(=O)O)CC(=O)O)CC(=O)O)C(=O)N[C@@H](CC(C)C)C(=O)O (single isomer, unassigned) [DTPA-DLys-Pro-Arg-(4-Gu)Phe-Pro-Tyr-Ile-Leu-OH] | 83 nM | 16.3% | 0% |  |  |  |  |
| CC(C)C[C@H](NC(=O)[C@@H](NC(=O)[C@H](Cc1ccc(O)cc1)NC(=O)[C@@H]1CCCN1C(=O)[C@H](CCCNC(=N)N)NC(=O)C(Cc1ccc(NC(=N)N)cc1)NC(=O)[C@@H]1CCCN1C(=O)[C@@H](CCCCN)NC(=O)CN(CCN(CCN(CC(=O)O)CC(=O)O)CC(=O)O)CC(=O)O)C(C)(C)C)C(=O)O (stereo partly drawn) [Compound IX, DTPA-DLys-Pro-Phe(4-guanyl)-Arg-Pro-Tyr-tBuGly-Leu-OH] ({DTPA}-[dK]P[ξPhe(4-guanidino)]RPY[Tle]L-OH) | 12.5 nM | 72.0% | 51.1% |  |  |  | 12.5 nM |
| CC[C@H](C)[C@H](NC(=O)[C@H](Cc1ccc(O)cc1)NC(=O)[C@@H]1CCCN1C(=O)[C@H](CCCNC(=N)N)NC(=O)C(NC(=O)[C@@H]1CCCN1C(=O)[C@@H](CCCCN)NC(=O)CN(CCN(CCN(CC(=O)O)CC(=O)O)CC(=O)O)CC(=O)O)C1CCN(C(=N)N)CC1)C(=O)N[C@@H](CC(C)C)C(=O)O (single isomer, unassigned) [Compound II, DTPA-DLys-Pro-Gly(PipAm)-Arg-Pro-Tyr-Ile-Leu-OH] |  | 19.5% | 16.6% | 2.7 nM | 19.5% | 16.6% |  |
| CC[C@H](C)[C@H](NC(=O)[C@H](Cc1ccc(O)cc1)NC(=O)[C@@H]1CCCN1C(=O)C(Cc1ccc(NC(=N)N)cc1)NC(=O)C(Cc1ccc(NC(=N)N)cc1)NC(=O)[C@@H]1CCCN1C(=O)[C@@H](CCCCN)NC(=O)CN(CCN(CCN(CC(=O)O)CC(=O)O)CC(=O)O)CC(=O)O)C(=O)N[C@@H](CC(C)C)C(=O)O (stereo partly drawn) [DTPA-DLys-Pro-(4-Gu)Phe-(4-Gu)Phe-Pro-Tyr-Ile-Leu-OH] ({DTPA}-[dK]P[ξPhe(4-guanidino)][ξPhe(4-guanidino)]PYIL-OH) | 175 nM | 25.2% | 2.3% |  |  |  |  |
| CC(C)C[C@H](NC(=O)C1(NC(=O)[C@H](Cc2ccc(O)cc2)NC(=O)[C@@H]2CCCN2C(=O)[C@H](CCCNC(=N)N)NC(=O)C(NC(=O)[C@@H]2CCCN2C(=O)[C@@H](CCCCN)NC(=O)CN(CCN(CCN(CC(=O)O)CC(=O)O)CC(=O)O)CC(=O)O)C2CCN(C(=N)N)CC2)CCCCC1)C(=O)O (stereo partly drawn) [DTPA-DLys-Pro-Gly(PipAm)-Arg-Pro-Tyr-Achc-Leu-OH] ({DTPA}-[dK]P[ξGly(4-Pip(1-amidino))]RPY[Ac6c]L-OH) | > 10000 nM | 89.9% | 84.9% |  |  |  |  |
| CC[C@H](C)[C@H](NC(=O)[C@H](Cc1ccc(O)cc1)NC(=O)[C@@H]1CCCN1C(=O)C(CCc1ccnc(N)n1)NC(=O)[C@H](CCCNC(=N)N)NC(=O)[C@@H]1CCCN1C(=O)[C@@H](CCCCN)NC(=O)CN(CCN(CCN(CC(=O)O)CC(=O)O)CC(=O)O)CC(=O)O)C(=O)N[C@@H](CC(C)C)C(=O)O (single isomer, unassigned) [DTPA-DLys-Pro-Arg-Aba(Apy)-Pro-Tyr-Ile-Leu-OH] | 1200 nM | 15.7% | 4.7% |  |  |  |  |
| CC(C)(C)[C@H](NC(=O)[C@H](Cc1ccc(O)cc1)NC(=O)[C@@H]1CCCN1C(=O)[C@H](CCCNC(=N)N)NC(=O)C(NC(=O)[C@@H]1CCCN1C(=O)[C@H](CCCCN)NC(=O)[C@H](CC(N)=O)NC(=O)[C@H](CCC(=O)O)NC(=O)[C@@H](Cc1ccc(O)cc1)NC(=O)CN(CCN(CCN(CC(=O)O)CC(=O)O)CC(=O)O)CC(=O)O)C1CCN(C(=N)N)CC1)C(=O)N[C@@H](CC1CCCCC1)C(=O)O (stereo partly drawn) [Compound XIV, DTPA-DTyr-Glu-Asn-Lys-Pro-Gly(PipAm)-Arg-Pro-Tyr-tBuGly-Cha-OH] ({DTPA}-[dY]ENKP[ξGly(4-Pip(1-amidino))]RPY[Tle][Cha]-OH) | 4.5 nM | 93.9% | 81.8% |  |  |  |  |
| Cc1cc(O)cc(C)c1C[C@H](NC(=O)[C@@H]1CCCN1C(=O)[C@H](CCCNC(=N)N)NC(=O)C(NC(=O)[C@@H]1CCCN1C(=O)[C@@H](CCCCN)NC(=O)CN(CCN(CCN(CC(=O)O)CC(=O)O)CC(=O)O)CC(=O)O)C1CCN(C(=N)N)CC1)C(=O)N[C@H](C(=O)N[C@@H](CC(C)C)C(=O)O)C(C)(C)C (stereo partly drawn) [DTPA-DLys-Pro-Gly(PipAm)-Arg-Pro-(2,6-diMe)Tyr-tBuGly-Leu-OH] ({DTPA}-[dK]P[ξGly(4-Pip(1-amidino))]RP[Dmt][Tle]L-OH) | 45 nM | 96.6% | 99.2% |  |  |  |  |
| CC(C)C[C@H](NC(=O)[C@@H](NC(=O)[C@H](Cc1ccc(O)cc1)NC(=O)[C@@H]1CCN1C(=O)[C@H](CCCNC(=N)N)NC(=O)C(NC(=O)[C@@H]1CCCN1C(=O)[C@@H](CCCCN)NC(=O)CN(CCN(CCN(CC(=O)O)CC(=O)O)CC(=O)O)CC(=O)O)C1CCN(C(=N)N)CC1)C(C)(C)C)C(=O)O (stereo partly drawn) [DTPA-DLys-Pro-Gly(PipAm)-Arg-AzeCA-Tyr-tBuGly-Leu-OH] ({DTPA}-[dK]P[ξGly(4-Pip(1-amidino))]R[Aze]Y[Tle]L-OH) | 740 nM | 79.2% | 36.5% |  |  |  |  |
| CC(C)C[C@H](NC(=O)[C@@H](NC(=O)[C@H](Cc1ccc(O)cc1)NC(=O)[C@@H]1CCCN1C(=O)C(NC(=O)C(NC(=O)[C@@H]1CCCN1C(=O)[C@@H](CCCCN)NC(=O)CN(CCN(CCN(CC(=O)O)CC(=O)O)CC(=O)O)CC(=O)O)C1CCN(C(=N)N)CC1)C1CCNCC1)C(C)(C)C)C(=O)O (stereo partly drawn) [DTPA-DLys-Pro-Gly(PipAm)-PipGly-Pro-Tyr-tBuGly-Leu-OH] ({DTPA}-[dK]P[ξGly(4-Pip(1-amidino))][ξGly(piperidin-4-yl)]PY[Tle]L-OH) | 140 nM | 91.6% | 79.7% |  |  |  |  |
| CC(C)C[C@H](NC(=O)[C@@H](NC(=O)[C@H](Cc1ccc(O)cc1)NC(=O)[C@@H]1CC(=O)CN1C(=O)[C@H](CCCNC(=N)N)NC(=O)C(NC(=O)[C@@H]1CCCN1C(=O)[C@@H](CCCCN)NC(=O)CN(CCN(CCN(CC(=O)O)CC(=O)O)CC(=O)O)CC(=O)O)C1CCN(C(=N)N)CC1)C(C)(C)C)C(=O)O (stereo partly drawn) [DTPA-DLys-Pro-Gly(PipAm)-Arg-(4-oxo)Pro-Tyr-tBuGly-Leu-OH] ({DTPA}-[dK]P[ξGly(4-Pip(1-amidino))]R[Pro(4-oxo)]Y[Tle]L-OH) | > 1000 nM | 78.5% | 79.7% |  |  |  |  |

From patent US7015306B2 (BioSynthema, Inc., priority 1999, dated 2006)
